Experimental data from US4851572A, “γ-L-glutamyl-4-nitroanilide derivatives and process for determining γ-GTP activity using the same” (Wako Pure Chemical Industries, Ltd., priority 1987, dated 1989).
≈ marks a conversion by molar mass, not a printed value. Read-outs that look alike come from different tables or passages of the source.

Key:
[1] = target: T1, γ-GTP (human serum) (Homo sapiens, UniProt P19440); experiment: Measurement of γ-GTP activity with the substrate, human serum sample (rate assay, 410 nm); format: biochemical; conditions: relative to Comparative Example 1 taken as 100, 37° C., 5 min
T1 construct: As samples, there were used human serum; from tissue; host or cells: human serum
Protocol: (§1) Measurement of γ-GTP activity
(§2) 100 Millimols of tris(hydroxymethyl)aminomethane and 60 mmols of glycylglycine were added in 800 ml of deionized water, and pH of its solution was adjusted to 8.2 (at 25° C.) with hydrochloric acid, after which the resulting solution was made up to 1 liter with deionized water.
(§3) In deionized water was dissolved 15 mmols of the γ-L-glutamyl-3-hydroxymethyl-4-nitroanilide obtained in Example 1 to make a total volume of 1 liter.
(§4) As samples, there were used human serum and 7% aqueous bovine albumin solutions containing γ-GTP derived from porcine kidney or bovine kidney (hereinafter abbreviated as parcine sample and bovine sample, respectively).
(§5) To 50 μl of each sample was added 2.0 ml of the buffer solution .circle.1 , followed by preincubation at 37° C. for 3 minutes, and 0.5 ml of the substrate solution .circle.2 was added. After sufficient mixing, the resulting mixture was allowed to stand for 1 minute, after which the increase rate of absorbance at 410 nm was measured, and the γ-GTP activity value (IU/l) in the sample was calculated from the molecular absorption coefficient (7.6×10^6 cm^2 /mol) of 3-hydroxymethyl-4-nitroaniline generated.
(§6) 100 mmols of tris(hydroxymethyl)aminomethane and 60 mmols of glycylglycine were added in 800 ml of deionized water, and pH of its solution was adjusted to 8.2 (at 25° C.) with hydrochloric acid, after which the resulting solution was made up to 1 liter with deionized water.
(§7) In deionized water was dissolved 15 mmols of the γ-L-glutamyl-3-(β-hydroxyethyl)-4-nitroanilide obtained in Example 3 to make a total volume of 1 liter.
(§8) The same samples as in Example 5 were used.
as §5, with “(7.3×10^6” for “(7.6×10^6”, “3-(β-hydroxyethyl)-4-nitroaniline” for “3-hydroxymethyl-4-nitroaniline”, “generated. […]” for “generated.”
as §5, with “(8.8×10^6” for “(7.6×10^6”, “p-nitroaniline” for “3-hydroxymethyl-4-nitroaniline”, “generated. […]” for “generated.”

[2] = target: T2, γ-GTP derived from bovine kidney (Bos taurus, UniProt G3N2D8); experiment: Measurement of γ-GTP activity with the substrate, bovine sample (rate assay, 410 nm); format: biochemical; conditions: relative to Comparative Example 1 taken as 100, 37° C., 5 min
T2 construct: γ-GTP derived from porcine kidney or bovine kidney; from tissue; host or cells: bovine kidney
Protocol: as §1, §2, §3, §4, §5, §6, §7, §8
as §5, with “(7.3×10^6” for “(7.6×10^6”, “3-(β-hydroxyethyl)-4-nitroaniline” for “3-hydroxymethyl-4-nitroaniline”, “generated. […]” for “generated.”
as §5, with “(8.8×10^6” for “(7.6×10^6”, “p-nitroaniline” for “3-hydroxymethyl-4-nitroaniline”, “generated. […]” for “generated.”

[3] = Solubility of the substrates in reagent solutions; format: physicochemical; conditions: pH 8.2, reagent solution (buffer:substrate solution 4:1)
Description: In Table 2 are shown the solubility of the substrates for measuring γ-GTP activity used in Examples 5 and 6 and Comparative Examples 1 and 2 in reagent solutions (reagent solutions being obtained by mixing each buffer solution and each substrate solution in the ratio of 4:1), and the results of stability test on the substrate solutions in the individual cases.

[4] = system: γ-GTP; experiment: Difference in reactivity with γ-GTPs derived from various sources (human serum, porcine, bovine); format: biochemical; conditions: for Difference between max. and min. activity values: human serum, porcine and bovine samples, relative values, Comparative Example 1 = 100
Protocol: as §4, §5
as §5, with “(7.3×10^6” for “(7.6×10^6”, “3-(β-hydroxyethyl)-4-nitroaniline” for “3-hydroxymethyl-4-nitroaniline”
as §5, with “(8.8×10^6” for “(7.6×10^6”, “p-nitroaniline” for “3-hydroxymethyl-4-nitroaniline”
as §5, with “subdrate” for “substrate”, “([…]” for “(7.6×10^6 cm^2”, “3-carboxy-4-nitroaniline” for “3-hydroxymethyl-4-nitroaniline”
In Table 1, the values of Comparative Example 2 and Examples 5 and 6 are relative γ-GTP activity values taking those of Comparative Example 1 as 100. The γ-GTP activity values (IU/l) were calculated from an absorbance change (ΔE/5 min) at 410 nm for 5 minutes after initiation of the reaction.

[5] = target: T3, γ-GTP derived from porcine kidney (Sus scrofa, UniProt P20735); experiment: Measurement of γ-GTP activity with the substrate, porcine sample (rate assay, 410 nm); format: biochemical; conditions: relative to Comparative Example 1 taken as 100, 37° C., 5 min
T3 construct: γ-GTP derived from porcine kidney or bovine kidney; from tissue; host or cells: porcine kidney
Protocol: as §1, §2, §3, §4, §5, §6, §7, §8
as §5, with “(7.3×10^6” for “(7.6×10^6”, “3-(β-hydroxyethyl)-4-nitroaniline” for “3-hydroxymethyl-4-nitroaniline”, “generated. […]” for “generated.”
as §5, with “(8.8×10^6” for “(7.6×10^6”, “p-nitroaniline” for “3-hydroxymethyl-4-nitroaniline”, “generated. […]” for “generated.”

[6] = target: T1, γ-GTP (human serum); conditions: reported by Leslie M. Shaw (Clinical Chemistry, 23, 79 (1977)); cited from earlier work
[7] = background statement, cited from earlier work
[8] = system: γ-GTP (porcine kidney); conditions: reported by Leslie M. Shaw (Clinical Chemistry, 23, 79 (1977)); cited from earlier work
[9] = target: T4, γ-GTP (human sera) (Homo sapiens, UniProt P19440); experiment: Measurement of γ-GTP activity in human sera with Hitachi automatic analyzer Model 7150 (precision, correlation); format: biochemical; conditions: for Average values (measured values of human sera): n=50 human sera; for Average / Coefficient of variation (C.V.) / Maximum / Minimum: within-run precision
T4 construct: heavy and light chain from one precursor), not purified
Protocol: (§9) The buffer solution prepared in Example 5 was used.
(§10) In deionized water was dissolved 10 mmols of the γ-L-glutamyl-3-hydroxymethyl-4-nitroanilide obtained in Example 4 to make a total volume of 1 liter.
Fifty human sera were used as samples.
The buffer solution prepared in Comparative Example 2 was used.
The substrate solution prepared in Comparative Example 2 was used.
The same samples as in Example 7 were used.
Measurement was carried out under the same conditions as in Example 7, except that among CHEMISTRY PARAMETERS in Table 4, R1 VOLUME was changed to [320][100][NO], […] to [80][20][NO], and K FACTOR to 7123 (ε=9.5).
0.125M Tris-HCL buffer (pH 7.8, at 37° C., containing 96 mM glycylglycine and 13 mM magnesium chloride).
A 0.1N hydrochloric acid solution containing 20 mM of γ-L-glutamyl-4-nitroanilide.
Measurement was carried out under the same conditions as in Example 7, except that among CHEMISTRY PARAMETERS in Table 4, K FACTOR was changed to 6835 (ε=9.90).
In FIG. 1 is shown the correlation of the values measured for the individual human sera in Example 7 with those in Comparative Example 3. The coefficient of correlation, the regression equation, and the like, obtained by statistical processing, etc. are shown below.
In FIG. 2 is shown the correlation of the values measured for the individual human sera in Example 7 with those in Comparative Example 4. The coefficient of correlation, the regression equation, and the like, obtained by statistical processing, etc. are shown below.

[10] = system: γ-GTP (porcine kidney); experiment: Km value, γ-GTP from porcine kidney; format: biochemical
Description: (§11) In Table 3 are shown the results of measuring, by a conventional method, Km values of γ-L-glutamyl-3-hydroxymethyl-4-nitroanilide, which is a compound of this invention, for each of γ-GTPs derived from human serum, porcine kidney and bovine kidney.
In Table 3 are also shown, for reference, Km values of γ-L-glutamyl-3-carboxy-4-nitroanilide and γ-L-glutamyl-p-nitroanilide reported by Leslie M. Shaw (Clinical Chemistry, 23, 79 (1977)).

[11] = target: T3, γ-GTP derived from porcine kidney; experiment: Calibration curve linearity with γ-GTP derived from porcine kidney in 7% aqueous bovine albumin solution; format: biochemical; conditions: 7% aqueous bovine albumin solution containing porcine kidney γ-GTP
Protocol: as §9, §10

[12] = system: γ-GTP (bovine kidney); experiment: Km value, γ-GTP from bovine kidney; format: biochemical
Description: as §11

[13] = suitable pH range for determining γ-GTP activity; background statement; cited from earlier work

T3 sequence (P20735 1-379 limits assumed): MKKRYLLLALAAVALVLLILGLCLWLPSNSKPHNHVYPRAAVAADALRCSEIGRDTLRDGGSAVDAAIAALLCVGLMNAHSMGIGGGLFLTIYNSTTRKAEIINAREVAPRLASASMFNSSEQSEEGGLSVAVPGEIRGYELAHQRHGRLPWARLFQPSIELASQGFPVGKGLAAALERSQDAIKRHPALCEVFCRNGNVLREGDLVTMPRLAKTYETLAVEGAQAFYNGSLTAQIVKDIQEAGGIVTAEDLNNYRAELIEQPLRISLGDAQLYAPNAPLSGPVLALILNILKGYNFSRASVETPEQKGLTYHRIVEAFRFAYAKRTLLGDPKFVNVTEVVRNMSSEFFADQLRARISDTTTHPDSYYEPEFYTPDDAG
T3 sequence (P20735 380-568 limits assumed): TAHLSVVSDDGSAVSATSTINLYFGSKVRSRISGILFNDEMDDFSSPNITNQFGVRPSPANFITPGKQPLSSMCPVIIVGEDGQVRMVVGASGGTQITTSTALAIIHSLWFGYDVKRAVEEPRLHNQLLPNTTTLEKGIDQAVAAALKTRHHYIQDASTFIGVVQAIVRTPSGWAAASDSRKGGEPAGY
T4 sequence (P19440 whole entry): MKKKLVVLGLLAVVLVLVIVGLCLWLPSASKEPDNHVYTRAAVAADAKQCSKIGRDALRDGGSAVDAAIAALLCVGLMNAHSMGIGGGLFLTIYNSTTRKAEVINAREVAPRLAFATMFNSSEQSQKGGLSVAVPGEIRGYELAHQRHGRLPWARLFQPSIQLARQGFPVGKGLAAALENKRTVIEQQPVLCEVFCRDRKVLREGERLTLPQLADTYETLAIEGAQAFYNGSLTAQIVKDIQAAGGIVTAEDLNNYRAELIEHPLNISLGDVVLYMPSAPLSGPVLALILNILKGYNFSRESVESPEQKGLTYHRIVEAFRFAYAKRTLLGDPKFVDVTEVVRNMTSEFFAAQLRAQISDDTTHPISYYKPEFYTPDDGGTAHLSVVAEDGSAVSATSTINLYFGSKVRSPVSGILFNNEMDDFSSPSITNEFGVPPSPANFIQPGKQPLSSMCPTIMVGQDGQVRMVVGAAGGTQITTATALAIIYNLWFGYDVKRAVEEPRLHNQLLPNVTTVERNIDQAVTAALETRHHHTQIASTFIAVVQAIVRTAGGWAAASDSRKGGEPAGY
T2 sequence (G3N2D8 1-379 limits assumed): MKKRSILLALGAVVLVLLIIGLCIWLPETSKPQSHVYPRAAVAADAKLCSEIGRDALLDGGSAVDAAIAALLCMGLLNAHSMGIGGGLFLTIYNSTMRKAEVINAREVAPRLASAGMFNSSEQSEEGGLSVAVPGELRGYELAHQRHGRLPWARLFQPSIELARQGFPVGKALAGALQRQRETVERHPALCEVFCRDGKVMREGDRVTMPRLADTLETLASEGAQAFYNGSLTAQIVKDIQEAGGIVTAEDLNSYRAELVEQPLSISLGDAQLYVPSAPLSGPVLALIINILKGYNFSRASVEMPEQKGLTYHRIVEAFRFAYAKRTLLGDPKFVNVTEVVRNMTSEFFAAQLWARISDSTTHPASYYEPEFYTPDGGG
T2 sequence (G3N2D8 380-568 limits assumed): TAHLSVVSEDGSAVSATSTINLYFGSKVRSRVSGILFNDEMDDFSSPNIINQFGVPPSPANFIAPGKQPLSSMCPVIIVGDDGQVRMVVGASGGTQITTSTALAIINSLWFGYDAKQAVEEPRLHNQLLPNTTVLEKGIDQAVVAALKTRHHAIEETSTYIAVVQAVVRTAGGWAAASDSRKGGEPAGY
T1 sequence (P19440 1-380 limits assumed): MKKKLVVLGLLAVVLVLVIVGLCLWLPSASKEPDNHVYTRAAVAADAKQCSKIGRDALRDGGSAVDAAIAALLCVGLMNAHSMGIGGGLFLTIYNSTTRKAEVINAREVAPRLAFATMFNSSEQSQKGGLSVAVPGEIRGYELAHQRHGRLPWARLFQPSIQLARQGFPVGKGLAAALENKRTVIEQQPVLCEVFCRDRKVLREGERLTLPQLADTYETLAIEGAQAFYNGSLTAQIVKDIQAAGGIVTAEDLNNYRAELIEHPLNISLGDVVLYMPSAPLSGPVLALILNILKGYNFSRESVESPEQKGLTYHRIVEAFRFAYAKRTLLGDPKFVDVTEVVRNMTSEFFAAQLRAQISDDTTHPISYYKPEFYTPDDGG
T1 sequence (P19440 381-569 limits assumed): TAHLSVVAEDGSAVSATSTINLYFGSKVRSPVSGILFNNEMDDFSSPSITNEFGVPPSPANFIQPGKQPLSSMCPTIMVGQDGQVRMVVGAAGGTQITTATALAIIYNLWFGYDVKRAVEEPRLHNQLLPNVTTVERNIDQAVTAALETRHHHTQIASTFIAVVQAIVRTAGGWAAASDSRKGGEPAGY

## N[C@@H](CCC(=O)Nc1ccc([N+](=O)[O-])c(CCO)c1)C(=O)O [γ-L-glutamyl-3-(β-hydroxyethyl)-4-nitroanilide]
[1]
  relative γ-GTP activity value, human serum: 95
[2]
  relative γ-GTP activity value, bovine sample: 85
[3]; 5° C.
  Solubility: 10000 µM (≈ 3.11 mg/mL)
[4]
  Difference between max. and min. activity values: 10
[5]
  relative γ-GTP activity value, porcine sample: 87

## N[C@@H](CCC(=O)Nc1ccc([N+](=O)[O-])c(C(=O)O)c1)C(=O)O [γ-L-glutamyl-3-carboxy-4-nitroanilide, reference compound]
[6]
  Km: 1190 µM
[1]
  relative γ-GTP activity value, human serum: 103
[2]
  relative γ-GTP activity value, bovine sample: 94
[7]
  solubility and stability after dissolution versus γ-glutamyl-p-nitroanilide (in words): much superior
[3]; 5° C.
  Solubility: ≥ 100000 µM
[4]
  Difference between max. and min. activity values: 33
[4]; various sources of γ-GTP
  difference in reactivity with γ-GTPs derived from various sources (in words): vary more widely in reactivity with γ-GTPs derived from various sources
[8]
  Km: 1630 µM
[5]
  relative γ-GTP activity value, porcine sample: 127
[9]
  Average values (measured values of human sera): 106.72

## N[C@@H](CCC(=O)Nc1ccc([N+](=O)[O-])c(CO)c1)C(=O)O [γ-L-glutamyl-3-hydroxymethyl-4-nitroanilide]
[1]
  relative γ-GTP activity value, human serum: 148
[10]
  Km: 670 µM
[11]
  linearity of calibration curve, upper limit: about 6400 IU/l
[2]
  relative γ-GTP activity value, bovine sample: 151
[12]
  Km: 670 µM
[3]; 5° C.
  Solubility: ≥ 100000 µM
[4]
  Difference between max. and min. activity values: 12
[5]
  relative γ-GTP activity value, porcine sample: 139
[9]; Example 7 vs Comparative Example 3, n=50 human sera
  Coefficient of correlation: 0.9998
[9]; Example 7 vs Comparative Example 4, n=50 human sera
  Coefficient of correlation: 0.9998
[9]; Table 5
  within-run precision (in words): good precision
[9]
  Average values (measured values of human sera): 115.94
[9]; sample 1, n=40
  Average: 66.4 IU/l
  Coefficient of variation (C.V.): 0.95
  Maximum: 68 IU/l
  Minimum: 66 IU/l
[9]; sample 2, n=40
  Average: 137.0 IU/l
  Coefficient of variation (C.V.): 0.83
  Maximum: 139 IU/l
  Minimum: 134 IU/l

## N[C@@H](CCC(=O)Nc1ccc([N+](=O)[O-])c(S(=O)(=O)O)c1)C(=O)O [γ-L-glutamyl-3-sulfo-4-nitroanilide]
[7]
  solubility and stability after dissolution versus γ-glutamyl-p-nitroanilide (in words): much superior

## N[C@@H](CCC(=O)Nc1ccc([N+](=O)[O-])cc1)C(=O)O [γ-L-glutamyl-p-nitroanilide, reference compound]
[6]
  Km: 1330 µM
[1]
  relative γ-GTP activity value, human serum: 100
[2]
  relative γ-GTP activity value, bovine sample: 100
[7]; suitable pH range for dissolution
  stability (in words): unstable
[3]; 37° C.
  Solubility: 5000 µM (≈ 1.34 mg/mL)
[8]
  Km: 1870 µM
[5]
  relative γ-GTP activity value, porcine sample: 100
[9]
  Average values (measured values of human sera): 115.02
[13]
  solubility (in words): slightly soluble
